This note sets out measurements from patent US20100306877A1, “FLAVONOID GLUCOSYLTRANSFERASE AND USE OF SAME” (International Flower Development Proprietary Limited, priority 2006, published 2010).

Molecules are shown by their SMILES.

The test relates to protein encoded by cDNA contained in pSPB1123 (flavonol 3GT). Put plainly: Glucosyltransferase activity of the protein encoded by pSPB1123 cDNA expressed in yeast, product measured by HPLC. The format is biochemical, rose. Particulars: flavonol substrates compared. From the text: In order to analyze the activity of a protein encoded by cDNA contained in pSPB1123, this cDNA was expressed in yeast cells. Yeast expression vector pYE22m (Plant Cell Physiol. (1996) 37, 711-716) was used to express the cDNA in yeast. A fragment obtained by digested pSPB1123 cDNA with EcoRI and KpnI was inserted into an EcoRI and KpnI recognition sequence of pYE22m to obtain a yeast expression vector. This vector was then inserted into yeast strain G1315 followed by measurement of activity of the protein encoded by pSPB1123 according to the method described on pp. 114-118 of Shinseibutsugaku Jikken (New Biological Experiment) Manual 3 (Kagaku-Dojin Publishing Co., Inc.). The method for measuring activity and the conditions for measuring a product by HPLC were the same as the method and the like described in Plant Physiology (2003) 132, 1652-1663. Furthermore, anthocyanin (cyanidin, pelargonidin), cyanidin 3-glucoside (cyanidin 3G), cyanidin 3,5-diglucoside (cyanidin 3,5G), flavonol (quercetin, kaempferol) and flavone (apigenin, luteolin) were used as substrates for measurement of the activity.

Take `O=c1c(O)c(-c2ccc(O)cc2)oc2cc(O)cc(O)c12` [kaempferol]: the substrate preference entry is “prefer quercetin to kaempferol”.
As to `O=c1c(O)c(-c2ccc(O)c(O)c2)oc2cc(O)cc(O)c12` [quercetin], the substrate preference entry is given as “prefer quercetin to kaempferol”.
